Experimental data from patent publication US9873690B2, “3-indol substituted derivatives, pharmaceutical compositions and methods for use” (Pfizer Inc., priority 2015, dated 2018).

Target: T1, hTDO2 (Homo sapiens, UniProt P48775)
T1 construct: endogenous in cells; host or cells: A172 human brain glioblastoma cells (ATCC CRL-1620)
Experiment: Cellular assay for TDO2 activity determination in A172 cells
Assay type: cell-based
Conditions: human glioblastoma A172 cells naturally expressing hTDO2; overnight incubation; kynurenine by absorbance at 480 nm
Method: The compounds of formula I inhibit the activity of human TDO2 in cells that constitutively express TDO2, such as A172 cells. A172 is a cell line derived from human brain glioblastoma cells. The cells are available from the American Type Culture Collection (ATCC®) as CRL-1620™.
The assay (adapted from Pilotte L et al., Proc Natl Acad Sci USA, 2012, 109(7), 2497-502) was performed in 96-well flat bottom plates seeded with human glioblastoma A172 cells, naturally expressing hTDO2 (prepared as described in Tilman et al., Mol Cancer, 2007, 17(6), 80), at a concentration of 1.25×10^4 cells/well in a final volume of 200 μL. To determine TDO, the cells were incubated overnight at 37° C. at 5% CO2 in IMDM (Invitrogen) supplemented with 2% FBS and 2% penicillin/streptomycin in the presence of the compounds of the present invention, at different concentrations.
The plates were then centrifuged 5 min at 1000 rpm, and 100 μL of the supernatant were collected in a conical plate, 30 μL of TCA 30% were added and a further centrifuged at 3000×g for 10 minutes. 100 μL of the supernatant were collected in a flat bottomed plate and 100 μL of 2% (w/v) 4-(dimethylamino)-benzaldehyde in acetic acid and incubated for 5 min at room temperature. Kynurenine concentrations were determined by measuring the absorbance at 480 nm. A standard curve was made with pure kynurenine. The TDO activity was measured as described above using ten serial concentrations of the compounds of the present invention. Data were fitted using the Prism™ software (GraphPad Software, Inc.) using standard parameters.
The biological activity of representative compounds in human brain glioblastoma cells as determined in the above-referenced assay is summarized in the following table: […]

T1 sequence (P48775 whole entry): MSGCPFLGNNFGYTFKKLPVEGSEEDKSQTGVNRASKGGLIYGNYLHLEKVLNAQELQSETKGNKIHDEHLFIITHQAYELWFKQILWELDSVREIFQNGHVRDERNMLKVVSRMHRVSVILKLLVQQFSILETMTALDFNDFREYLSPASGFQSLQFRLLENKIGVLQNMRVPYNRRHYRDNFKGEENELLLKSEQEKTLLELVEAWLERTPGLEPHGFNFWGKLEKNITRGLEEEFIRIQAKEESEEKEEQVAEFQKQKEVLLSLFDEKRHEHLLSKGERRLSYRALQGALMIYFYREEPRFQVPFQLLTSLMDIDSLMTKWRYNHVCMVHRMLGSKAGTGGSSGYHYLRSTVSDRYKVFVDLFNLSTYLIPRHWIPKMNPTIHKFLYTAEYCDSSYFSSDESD

| Compound | IC50 |
| --- | --- |
| CNS(=O)(=O)CCN1C(C)c2cc(-c3c[nH]c4cc(F)ccc34)ccc2S1(=O)=O (single isomer, unassigned; (+)) [Example 60, (+)-2-(5-(6-fluoro-1H-indol-3-yl)-3-methyl-1,1-dioxidobenzo[d]isothiazol-2(3H)-yl)-N-methylethane-1-sulfonamide] | 133 nM |
| CC1c2cc(-c3c[nH]c4cc(F)ccc34)ccc2S(=O)(=O)N1CCS(N)(=O)=O (single isomer, unassigned; (+)) [Example 61, (+)-2-(5-(6-fluoro-1H-indol-3-yl)-3-methyl-1,1-dioxidobenzo[d]isothiazol-2(3H)-yl)ethane-1-sulfonamide] | 309 nM |
| CC1c2cc(-c3c[nH]c4cc(F)ccc34)ccc2S(=O)(=O)N1CCO (single isomer, unassigned; (+)) [Example 63, (+)-5-(6-fluoro-1H-indol-3-yl)-2-(2-hydroxyethyl)-3-methyl-2,3-dihydrobenzo[d]isothiazole 1,1-dioxide] | 70 nM |
| CC1c2cc(-c3c[nH]c4cc(F)ccc34)ccc2S(=O)(=O)N1CCN1CCNCC1=O (single isomer, unassigned; (+)) [Example 66, (+)1-(2-(5-(6-fluoro-1H-indol-3-yl)-3-methyl-1,1-dioxidobenzo[d]isothiazol-2(3H)-yl)ethyl)piperazin-2-one] | 244 nM |
| Cc1cc(O)n(CCN2C(C)c3cc(-c4c[nH]c5cc(F)ccc45)ccc3S2(=O)=O)n1 (single isomer, unassigned; (+)) [Example 67, (+)-5-(6-fluoro-1H-indol-3-yl)-2-(2-(5-hydroxy-3-methyl-1H-pyrazol-1-yl)ethyl)-3-methyl-2,3-dihydrobenzo[d]isothiazole 1,1-dioxide] | 9500 nM |
| CC1c2cc(-c3c[nH]c4cc(F)ccc34)ccc2S(=O)(=O)N1CCN1CCOC1=O (single isomer, unassigned; (+)) [Example 69, (+)-3-(2-(5-(6-fluoro-1H-indol-3-yl)-3-methyl-1,1-dioxidobenzo[d]isothiazol-2(3H)-yl)ethyl)oxazolidin-2-one] | 264 nM |
| CC(=O)N1CCC(N2C(C)c3cc(-c4c[nH]c5cc(F)ccc45)ccc3S2(=O)=O)CC1 (single isomer, unassigned; (+)) [Example 71, (+)-1-(4-(5-(6-fluoro-1H-indol-3-yl)-3-methyl-1,1-dioxidobenzo[d]isothiazol-2(3H)-yl)piperidin-1-yl)ethanone] | 342 nM |
| CC(=O)N1CCC(N2C(C)c3cc(-c4c[nH]c5cc(F)ccc45)ccc3S2(=O)=O)C1 (single isomer, unassigned; (+)) [Example 73, (+)-1-(3-(5-(6-fluoro-1H-indol-3-yl)-3-methyl-1,1-dioxidobenzo[d]isothiazol-2(3H)-yl)pyrrolidin-1-yl)ethanone] | 246 nM |
| CC(=O)N1CCC(N2C(C)c3cc(-c4c[nH]c5cc(F)ccc45)ccc3S2(=O)=O)C1 (single isomer, unassigned; (+)) [Example 74, (+)-1-(3-(5-(6-fluoro-1H-indol-3-yl)-3-methyl-1,1-dioxidobenzo[d]isothiazol-2(3H)-yl)pyrrolidin-1-yl)ethanone] | 254 nM |
| CC1c2cc(-c3c[nH]c4cc(F)ccc34)ccc2S(=O)(=O)N1CC1CCNCC1 (single isomer, unassigned; (+)) [Example 78, (+)-5-(6-fluoro-1H-indol-3-yl)-3-methyl-2-(piperidin-4-ylmethyl)-2,3-dihydrobenzo[d]isothiazole 1,1-dioxide] | 174 nM |
| CC1c2cc(-c3c[nH]c4cc(F)ccc34)ccc2S(=O)(=O)N1CC1CCN(C)CC1 (single isomer, unassigned; (+)) [Example 80, (+)-5-(6-fluoro-1H-indol-3-yl)-3-methyl-2-((1-methylpiperidin-4-yl)methyl)-2,3-dihydrobenzo[d]isothiazole 1,1-dioxide] | 56 nM |
| CC1c2cc(-c3c[nH]c4cc(F)ccc34)ccc2S(=O)(=O)N1C[C@]1(C)CCC(=O)N1 (single isomer, unassigned; (+)) [Example 81] | 473 nM |
| CC1c2cc(-c3c[nH]c4cc(F)ccc34)ccc2S(=O)(=O)N1C[C@]1(C)CCC(=O)N1 (single isomer, unassigned; (+)) [Example 82] | 61 nM |
| CC1c2cc(-c3c[nH]c4cc(F)ccc34)ccc2S(=O)(=O)N1Cc1ncn(C)n1 (single isomer, unassigned; (+)) [Example 86, (+)-5-(6-fluoro-1H-indol-3-yl)-3-methyl-2-((1-methyl-1H-1,2,4-triazol-3-yl)methyl)-2,3-dihydrobenzo[d]isothiazole 1,1-dioxide] | 97 nM |
| CC1c2cc(-c3c[nH]c4cc(F)ccc34)ccc2S(=O)(=O)N1CC1(C)COC(=O)N1 (single isomer, unassigned; (+)) [Example 89, (+)-4-((5-(6-fluoro-1H-indol-3-yl)-3-methyl-1,1-dioxidobenzo[d]isothiazol-2(3H)-yl)methyl)-4-methyloxazolidin-2-one] | 58 nM |
| CC1c2cc(-c3c[nH]c4cc(F)ccc34)ccc2S(=O)(=O)N1CC1(C)COC(=O)N1 (single isomer, unassigned; (+)) [Example 90, (+)-4-((5-(6-fluoro-1H-indol-3-yl)-3-methyl-1,1-dioxidobenzo[d]isothiazol-2(3H)-yl)methyl)-4-methyloxazolidin-2-one] | 358 nM |
| CC1c2cc(-c3c[nH]c4cc(F)ccc34)ccc2S(=O)(=O)N1C1CNC1 (single isomer, unassigned; (+)) [Example 92, (+)-2-(azetidin-3-yl)-5-(6-fluoro-1H-indol-3-yl)-3-methyl-2,3-dihydrobenzo[d]isothiazole 1,1-dioxide] | 27 nM |
| CC1c2cc(-c3c[nH]c4cc(F)ccc34)ccc2S(=O)(=O)N1C[C@@H](O)CO (single isomer, unassigned; (+)) [Example 94] | 39 nM |
| CC1c2cc(-c3c[nH]c4cc(F)ccc34)ccc2S(=O)(=O)N1C[C@H](O)CO (single isomer, unassigned; (+)) [Example 96] | 30 nM |
| CNC(=O)C(O)CN1C(C)c2cc(-c3c[nH]c4cc(F)ccc34)ccc2S1(=O)=O (single isomer, unassigned; (+)) [Example 97, (+)-3-(5-(6-fluoro-1H-indol-3-yl)-3-methyl-1,1-dioxidobenzo[d]isothiazol-2(3H)-yl)-2-hydroxy-N-methylpropanamide] | 33 nM |
| CNC(=O)C(O)CN1C(C)c2cc(-c3c[nH]c4cc(F)ccc34)ccc2S1(=O)=O (single isomer, unassigned; (+)) [Example 99, (+)-3-(5-(6-fluoro-1H-indol-3-yl)-3-methyl-1,1-dioxidobenzo[d]isothiazol-2(3H)-yl)-2-hydroxy-N-methylpropanamide] | 180 nM |
| CNC(=O)C(N)CN1C(C)c2cc(-c3c[nH]c4cc(F)ccc34)ccc2S1(=O)=O (single isomer, unassigned; (+)) [Example 102, (+)-2-amino-3-(5-(6-fluoro-1H-indol-3-yl)-3-methyl-1,1-dioxidobenzo[d]isothiazol-2(3H)-yl)-N-methylpropanamide] | 114 nM |
| CNC(=O)C(N)CN1C(C)c2cc(-c3c[nH]c4cc(F)ccc34)ccc2S1(=O)=O (single isomer, unassigned; (+)) [Example 104, (+) 2-amino-3-(5-(6-fluoro-1H-indol-3-yl)-3-methyl-1,1-dioxidobenzo[d]isothiazol-2(3H)-yl)-N-methylpropanamide] | 120 nM |
